Reference: article PMC10935558, “In vitro and in silico studies reveal antidiabetic properties of arylbenzofurans from the root bark of Morus mesozygia Stapf” (Frontiers in Pharmacology, 2024)
Several values for one entry are separate records, joined by “and”; a condition that tells them apart may be missing. Equal entries are not always repeated.

Assays:
[1] = molecular target: Saccharomyces cerevisiae α-glucosidase; test: In-vitro α-glucosidase inhibition assay; format: biochemical; settings: for IC50: n = 5 independent experiments in duplicate, read-out: α-glucosidase IC50 (range)
Procedure: The α-glucosidase activity assay was carried out as described previously ([Günther et al., 2021]). Briefly, 10 mM stock solutions of the arylbenzofurans (1—3) prepared in DMSO were diluted in water. Fifteen µl of these diluted moracin compounds were mixed in 96-well microtest plates (VWR, Darmstadt, Germany) with 105 μL of 0.1 M phosphate buffer, pH 6.8 and 15 μL of a 0.5 U/mL Saccharomyces cerevisiae α-glucosidase solution (Sigma-Aldrich, Taufkirchen, Germany). The final arylbenzofurans concentrations range from 0–200 μM, while the final concentration of the extract and fractions ranges from 100–500 μg/mL. […] Following 5 min pre-incubation at 37°C, the reaction was started with 15 μL of 10 mM p-nitrophenyl-α-D-glucopyranoside (Sigma-Aldrich, Taufkirchen, Germany). After 20 min at 37 °C, 50 μL 2 M Na2CO3 stop solution was added (VWR, Darmstadt, Germany). The absorbance was measured photometrically at 405 nm (iEMS Reader MF). Five independent experiments were performed in duplicate.
(§1) GraphPad Prism, version 5.0 was used for the statistical analysis of data, which were expressed as mean ± standard deviation. Multiple comparisons of IC50 values were carried out by using one-way ANOVA followed by Tukey’s test.

[2] = molecular target: T1, porcine pancreatic α-amylase (Sus scrofa, UniProt P00690); test: In-vitro α-amylase inhibition assay; format: biochemical; settings: n = 2 independent experiments in duplicate; read-out: α-amylase IC50 (range)
T1 sequence (P00690 16-511): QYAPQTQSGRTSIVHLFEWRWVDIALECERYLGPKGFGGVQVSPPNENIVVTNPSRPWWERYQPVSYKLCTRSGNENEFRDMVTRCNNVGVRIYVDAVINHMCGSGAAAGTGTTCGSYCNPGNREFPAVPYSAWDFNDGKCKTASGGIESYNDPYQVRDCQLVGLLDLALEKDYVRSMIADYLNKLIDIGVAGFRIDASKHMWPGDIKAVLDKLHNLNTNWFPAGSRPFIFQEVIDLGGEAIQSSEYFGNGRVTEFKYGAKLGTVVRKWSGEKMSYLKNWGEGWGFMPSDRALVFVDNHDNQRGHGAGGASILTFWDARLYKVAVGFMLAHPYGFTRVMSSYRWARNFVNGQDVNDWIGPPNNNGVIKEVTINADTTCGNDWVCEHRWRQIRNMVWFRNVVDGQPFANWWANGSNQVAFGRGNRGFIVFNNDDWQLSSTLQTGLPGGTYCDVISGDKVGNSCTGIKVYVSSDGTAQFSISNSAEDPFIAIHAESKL
Procedure: To this end, moracins, extracts, and fraction stocks were diluted with water to give concentrations of 1,000 and 3,000 μg/mL. Of these dilutions, 15 μL were mixed with 35 µL distilled H2O and 50 μL of porcine pancreatic α-amylase (2.5 U/mL) in 20 mM sodium phosphate buffer containing 6.7 mM NaCl, pH 6.9. Following 10 min pre-incubation at 25°C, 50 μL 1% starch solution that had been cooked for 15 min in the same buffer was added to start the reaction. After 10 min at 25°C, 100 μL of a color reagent (1% 3,5-dinitrosalicylic acid and 30% sodium potassium tartrate in 0.4 M NaOH, all chemicals from Sigma-Aldrich, Taufkirchen, Germany) were added. The mixture was incubated for an additional 5 min at 100 °C and cooled to room temperature before the absorbance was measured at 540 nm by a microplate reader (iEMS Reader MF, MTX Lab Systems, Helsinki, Finland). […] The percentage inhibition of α-amylase was calculated by using the following equation: Inhibition%=AbC−AbCblank−AbS−AbSblank/AbC−AbCblank×100 AbC, absorbance of the control; AbS, absorbance of the sample.
as §1

[3] = molecular target: T2, human recombinant DPP4 enzyme (Homo sapiens, UniProt P27487); test: In-vitro dipeptidyl peptidase-4 (DPP4) inhibition assay (inhibitor screening kit); format: biochemical
T2 construct: purchased abcam, Berlin, Germany
T2 sequence (P27487 whole entry): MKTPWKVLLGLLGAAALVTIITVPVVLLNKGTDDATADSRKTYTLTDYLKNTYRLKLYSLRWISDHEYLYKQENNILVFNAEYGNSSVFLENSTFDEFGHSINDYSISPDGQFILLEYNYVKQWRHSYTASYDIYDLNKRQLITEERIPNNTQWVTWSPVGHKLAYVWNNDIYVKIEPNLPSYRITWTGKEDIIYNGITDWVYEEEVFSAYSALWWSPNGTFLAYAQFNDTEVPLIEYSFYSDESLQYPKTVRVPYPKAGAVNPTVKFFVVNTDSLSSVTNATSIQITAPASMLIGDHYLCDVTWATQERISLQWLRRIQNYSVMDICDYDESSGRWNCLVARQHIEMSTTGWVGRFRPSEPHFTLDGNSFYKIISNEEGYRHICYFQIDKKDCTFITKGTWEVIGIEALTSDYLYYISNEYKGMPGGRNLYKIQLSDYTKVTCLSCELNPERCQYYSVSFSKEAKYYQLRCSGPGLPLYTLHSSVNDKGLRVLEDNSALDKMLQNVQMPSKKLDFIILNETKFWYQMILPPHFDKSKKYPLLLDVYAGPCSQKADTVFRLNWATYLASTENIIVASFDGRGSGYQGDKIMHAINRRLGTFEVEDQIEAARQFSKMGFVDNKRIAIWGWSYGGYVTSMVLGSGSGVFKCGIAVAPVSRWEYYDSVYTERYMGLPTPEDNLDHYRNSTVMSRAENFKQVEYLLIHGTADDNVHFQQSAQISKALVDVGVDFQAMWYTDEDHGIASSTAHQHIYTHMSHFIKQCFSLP
Procedure: The DPP4 inhibitor activities of the three moracins were determined by using the DPP4 inhibitor screening kit following the manufacturer’s instructions (abcam, Berlin, Germany). The established DPP4 inhibitor sitagliptin served as the positive inhibitor control, whereas assay buffer was only used as the control for DPP4 enzyme activity and was set to 100%. 30 μL of assay buffer and 10 μL human recombinant DPP4 enzyme were mixed in 96-well microtiter plates with 10 μL of 0.1- or 1-mM moracin solutions, 1 mM sitagliptin, or assay buffer. Following 10 min pre-incubation at 37°C, 50 μL of substrate solution was added to each well. The fluorescence signal (excitation wavelength of 360 nm, emission wavelength of 465 nm) was measured after 30 min incubation at 37°C (Tecan Infinite 200 micro-plate reader).
as §1, with “test. For the DPP4 inhibition results, a one-way ANOVA followed by Dunnett’s post-hoc test was conducted to compare the means of treatment groups to that of the control group without inhibitor.” for “test.”

[4] = tested on: chronic hepatitis C virus (HCV) cell; set-up: method as in Hyun et al., 2007; settings: antiviral assay; ref Hyun et al., 2007; read-out: IC50 against HCV cell; cited from earlier work
[5] = tested on: H9c2 cells; set-up: method as in Zheng et al., 2017; settings: doxorubicin-induced myocardial toxicity in H9c2 cells; ref Zheng et al., 2017; read-out: EC50 cytoprotective effect; cited from earlier work
[6] = tested on: protein tyrosine phosphatase 1B (PTP1B); set-up: method as in Cui et al., 2006; settings: ref Cui et al., 2006; cited from earlier work

| inhibition at 100 µM ([3]; at 100 μM, read-out: inhibitory activity against DPP4) [%] | SMILES | IC50 [1] | IC50 [2] [µM] | DPP4 inhibition (in words) [3] | IC50 [4] [µM] | EC50 [5] [µM] | inhibitory effect against PTP1B (in words) [6] | fold less potent than 1 and 2 (α-glucosidase) [1] [fold] | residual peptidase (DPP4) activity compared to control ([3]; at 100 μM) [%] |
| --- | --- | --- | --- | --- | --- | --- | --- | --- | --- |
| 15 | CC(C)(O)CCc1c(O)ccc2cc(-c3cc(O)cc(O)c3)oc12 [Compound 1, 5-(6-hydroxy-7-(3-hydroxy-3-methylbutyl)benzofuran-2-yl)benzene-1,3-diol] | ~17 µM and 16.9 µM | > 300 | moderate inhibitors | – | – | – | – | – |
| – | CC1(C)Oc2cc3oc(-c4cc(O)cc(O)c4)cc3cc2C[C@H]1O [Compound 2, Moracin P] | ~17 µM and 16.6 µM | > 300 | – | 42.9 | 8.8 | marginal inhibitory effect | – | – |
| – | Oc1cc(O)cc(-c2cc3ccc(O)cc3o2)c1 [Compound 3, Moracin M] | 40.9 µM | > 300 | moderate inhibitors | > 100 | – | – | ~2.4 | 62.7 |
